US12138322B2, “Method of preventing the development of melanoma” (Vector Vitale IP LLC, priority 2019, dated 2024)
“And” between values parts separate entries of the source, which are not always exact repeats. Identical values can stand only once. “Also recorded” adds a separate entry of the source. Marks after values point to notes of the source that are not given here.

Tests used:
[1] = test system: B16 melanoma; test: B16 melanoma tumor growth and survival in mice, intratumoral administration; assay type: in vivo, C57Bl/J6 mice; design: key to presence or absence of tumor, individual animals: Tumor−: absence of tumor growth; Tumor+: presence of tumor; key to tumor volume, individual animals: tumor volume in mm^3, ellipsoid V = 4/3×π×a×b×c from radii; details: for size of melanoma reduced compared to control: drug administered on the 11th day after inoculation; for tumor volume, individual animals: group 2, individual regimens
Method: B16 melanoma cells having the following characteristic were used in the experiment: • Origin: Mus musculus skin (C57BL/6 mouse) • Characteristics of tumor growth: short incubation period, rapid growth, absence of spontaneous metastases. • Tumor inoculability is 100%. The minimum dose of cells that causes tumor growth for this melanoma is only 100 to 1000 per subcutaneous injection in the mouse.
15 female C57Bl/J6 mice (5 mice per group) at the age of 10-12 weeks, weighing 18-22 g were used in the experiment.
B16 melanoma cells were cultured in vitro under standard conditions. For transplantation, tumor cells in the exponential phase were removed from the substrate with 0.02% Versene solution and the suspension cellularity and viability was evaluated in the presence of trypan blue in a hemocytometer and the suspension was adjusted to a concentration of 10^7 cells/ml by dilution with saline solution. Melanoma cells were injected intracutaneously (i.e.) in 0.05 ml of the suspension (0.5×10^6 cells/mouse) into the animal's back region. 24 hours before the injection of tumor cells, the wool cover on the back of each mouse was removed with depilation cream.
Grouping. The animals were divided into groups as follows: • Group No. 1: control group, mice injected i.e. with B16 melanoma cells; • Group No. 2: mice injected i.e. with B16 melanoma cells+intratumoral injections of ^64Zne(Asp)2 at day 5 after the tumor cells were inoculated. • Group No. 3: mice injected i.e. with B16 melanoma cells+intratumoral injections of ^64Zne(Asp)2 at day 11 after the tumor cells were inoculated
The composition to be administered was prepared immediately prior to its administration. ^64Zne(Asp)2 was dissolved in deuterium-depleted water with addition of 1% DMSO. Animals in group No. 2 were injected with the composition comprising ^64Zne(Asp)2 intratumorally and around the area of tumor growth at a dose of 200 μg/mouse in a volume of 20 μl/mouse after the tumor reached 0.5 cm in diameter (at day 5 after i.e. administration of the tumor cells).
Animals in group No. 3 were injected with the composition comprising ^64Zne(Asp)2 intratumorally and around the area of tumor growth at a dose of 300 μg/mouse in a volume of 30 μl/mouse at day 11 after i.e. administration of the tumor cells. […] 24 hours after the first injection and then a series of injections were given every other day. ^64Zne(Asp)2 was administered intratumorally every other day for 10 days, 5 times in total.
Regarding the 3rd group: group 3 mice received 300 mcg/mouse of ^64Zne in the form of ^4Zne aspartate on the 11th day and 200 mcg/mouse of ^4Zne aspartate on the 13th, 15th, 17th and 19th days after tumor cell injection.
The anti-tumor efficacy of ^64Zne(Asp)2 was evaluated on the basis of the growth dynamics of melanoma tumors estimated based on the changes in tumor volume according to generally accepted rules.
From the time the experimental tumors reached 0.3-0.5 cm in diameter and every 2-3 days thereafter, the size of each tumor node in experimental animals was measured in three orthogonal planes (width×length×height (W×L×H)) and the tumor volume was calculated by use of the following formula for the volume of ellipsoid: V= 4/3×πabc; where V is the tumor volume (mm^3); a, b, c is the rumor radius (mm): a is the radius along the x axis, b is the radius along the y axis, c is the radius along the z axis.

[2] = test system: melanoma; test: Simultaneous intratumoral and intravenous administration (data not shown); assay type: in vivo
Method: A possibility of simultaneous intratumoral and intravenous administration of the composition comprising 64Zne(Asp)2 was assessed in additional experiments (data not shown).

In the case of `N[C@@H](CC(=O)[O-])C(=O)[O-].[Zn+2]` [^64Zne(Asp)2, Zinc L-aspartate], the “size of melanoma reduced compared to control” value ([1]; 21st day) was 85%, the “size of melanoma reduced compared to control” value ([1]; 24th day) was 75.6% and the “tumor volume, individual animals” value ([1]; 4 day after tumor cell inoculation (before 1st injection)) was 14.1 and 33.5 and 24.4 (2×) and 25. The “tumor volume, individual animals” value ([1]; 6 day) was 14.1 (3×) and 33.5 and 65.4, the “tumor volume, individual animals” value ([1]; 10 day) was 24.4 (2×) and 14 (2×) and 51 and the “tumor volume, individual animals” value ([1]; 12 day) was 24.4 and 14 (3×) and 116.4. For the same compound, the “local finding at tumor site, individual animal” value ([1]; 13 day, group 2) was “Eschar”, the “presence or absence of tumor, individual animals” value (“presence or absence of tumor” below) ([1]; 13 day, group 2) was “Tumor +/” and the “tumor volume, individual animals” value ([1]; 14 day) was 14 (2×) and 4.2 and 38.4 and 9.2. The “tumor volume, individual animals” value ([1]; 17 day) was 4.2 (3×) and 65.4 and 14, the “presence or absence of tumor” value ([1]; 18 day, group 2) was “Tumor +/” and the “tumor volume, individual animals” value ([1]; 21 day) was 0 (3×) and 179.6 and 33.5. For the same compound, the “presence or absence of tumor” value ([1]; 22 day, group 2) was “Tumor +/”, the “tumor volume, individual animals” value ([1]; 24 day) was 25.4 and 0 (2×) and 282.7 and 33.5 and the “Tumor necrosis, individual animal” value ([1]; 25 day, group 2) was “necrosis”. For the same compound, the “presence or absence of tumor” value ([1]; 25 day, group 2) was “Tumor +/”, the “death of individual animal” value ([1]; 28 day, group 2) was “Died*” and the “presence or absence of tumor” value ([1]; 28 day, group 2) was “Tumor−; also recorded: Tumor +/”. The “tumor volume, individual animals” value ([1]; 28 day) was 33.2 and 0 (2×) and 641 and 102.6, the “presence or absence of tumor” value ([1]; 36 day, group 2) was “Tumor +/; also recorded: Tumor−” and the “Tumor necrosis, individual animal” value ([1]; 39 day, group 2) was “necrosis”. The “presence or absence of tumor” value ([1]; 39 day, group 2) was “Tumor+; also recorded: Tumor−; also recorded: Tumor +/”, the “death of individual animal” value ([1]; 43 day, group 2) was “Died*” and the “presence or absence of tumor” value ([1]; 43 day, group 2) was “Tumor+; also recorded: Tumor−”. For the same compound, the “presence or absence of tumor” value ([1]; 55 day, group 2) was “Tumor−”, the “Tumor necrosis, individual animal” value ([1]; 58 day, group 2) was “necrosis” and the “presence or absence of tumor” value ([1]; 58 day, group 2) was “Tumor +/; also recorded: Tumor−”. The “death of individual animal” value ([1]; 61 day, group 2) was “Died*”, the “presence or absence of tumor” value ([1]; 61 day, group 2) was “Tumor−” and the “Tumor volume (M ± m)” value ([1]; day 4 after inoculation (before first injection), group 2: intratumoral 200 μg/mouse at day 5) was 24.3 mm^3. The “Tumor volume (M ± m)” value ([1]; day 4 after inoculation (before first injection), group 3: intratumoral 300 μg/mouse at day 11, then 200 μg/mouse) was 27 mm^3, the “Number of alive mice” value ([1]; day 4 after inoculation, group 2: intratumoral at day 5, 5 animals per group) was 100% and the “Number of alive mice” value ([1]; day 4 after inoculation, group 3: intratumoral at day 11, 5 animals per group) was 100%. The “Number of alive mice” value ([1]; day 6, group 2: intratumoral at day 5) was 100%, the “Number of alive mice” value ([1]; day 6, group 3: intratumoral at day 11) was 100% and the “Tumor volume (M ± m)” value ([1]; day 6 after inoculation (before first injection), group 3: intratumoral 300 μg/mouse at day 11, then 200 μg/mouse) was 63 mm^3. The “Tumor volume (M ± m)” value ([1]; day 6 after inoculation, group 2: intratumoral 200 μg/mouse at day 5) was 28.2 mm^3, the “Number of alive mice” value ([1]; day 9, group 2: intratumoral at day 5) was 100% and the “Number of alive mice” value ([1]; day 9, group 3: intratumoral at day 11) was 100%. For the same compound, the “Tumor volume (M ± m)” value ([1]; day 9 after inoculation (before first injection), group 3: intratumoral 300 μg/mouse at day 11, then 200 μg/mouse) was 119 mm^3, the “Tumor volume (M ± m)” value ([1]; day 9 after inoculation, group 2: intratumoral 200 μg/mouse at day 5) was 25.6 mm^3 and the “Number of alive mice” value ([1]; day 12, group 2: intratumoral at day 5) was 100%. The “Number of alive mice” value ([1]; day 12, group 3: intratumoral at day 11) was 80^+ %, the “Tumor volume (M ± m)” value ([1]; day 12 after inoculation, group 2: intratumoral 200 μg/mouse at day 5) was 36.6 mm^3 and the “Tumor volume (M ± m)” value ([1]; day 12 after inoculation, group 3: intratumoral 300 μg/mouse at day 11, then 200 μg/mouse) was 260 ± 20 mm^3. The “Number of alive mice” value ([1]; day 14, group 2: intratumoral at day 5) was 100%, the “Number of alive mice” value ([1]; day 14, group 3: intratumoral at day 11) was 80% and the “Tumor volume (M ± m)” value ([1]; day 14 after inoculation, group 2: intratumoral 200 μg/mouse at day 5) was 16 ± 6^d mm^3. For the same compound, the “Tumor volume (M ± m)” value ([1]; day 14 after inoculation, group 3: intratumoral 300 μg/mouse at day 11, then 200 μg/mouse) was 184 ± 51 mm^3, the “Number of alive mice” value ([1]; day 17, group 2: intratumoral at day 5) was 100% and the “Number of alive mice” value ([1]; day 17, group 3: intratumoral at day 11) was 80%. The “Tumor volume (M ± m)” value ([1]; day 17 after inoculation, group 2: intratumoral 200 μg/mouse at day 5) was 18.4 mm^3, the “Tumor volume (M ± m)” value ([1]; day 17 after inoculation, group 3: intratumoral 300 μg/mouse at day 11, then 200 μg/mouse) was 250 mm^3 and the “Number of alive mice” value ([1]; day 21, group 2: intratumoral at day 5) was 100%. The “Number of alive mice” value ([1]; day 21, group 3: intratumoral at day 11) was 80%, the “Tumor volume (M ± m)” value ([1]; day 21 after inoculation, group 2: intratumoral 200 μg/mouse at day 5) was 42.6 mm^3 and the “Tumor volume (M ± m)” value ([1]; day 21 after inoculation, group 3: intratumoral 300 μg/mouse at day 11, then 200 μg/mouse) was 375.4 mm^3. The “Number of alive mice” value ([1]; day 24, group 2: intratumoral at day 5) was 100%, the “Number of alive mice” value ([1]; day 24, group 3: intratumoral at day 11) was 60* % and the “Tumor volume (M ± m)” value ([1]; day 24 after inoculation, group 2: intratumoral 200 μg/mouse at day 5) was 68.3 mm^3. The “Tumor volume (M ± m)” value ([1]; day 24 after inoculation, group 3: intratumoral 300 μg/mouse at day 11, then 200 μg/mouse) was 881 mm^3, the “Number of alive mice” value ([1]; day 27, group 2: intratumoral at day 5) was 100% and the “Number of alive mice” value ([1]; day 27, group 3: intratumoral at day 11) was 60%. The “Tumor volume (M ± m)” value ([1]; day 27 after inoculation, group 2: intratumoral 200 μg/mouse at day 5) was 155.4 mm^3, the “Tumor volume (M ± m)” value ([1]; day 27 after inoculation, group 3: intratumoral 300 μg/mouse at day 11, then 200 μg/mouse) was 2313.5 mm^3 and the “Number of alive mice” value ([1]; day 28, group 2: intratumoral at day 5) was 80* %. The “Number of alive mice” value ([1]; day 28, group 3: intratumoral at day 11) was 40%, the “Number of alive mice” value ([1]; day 31, group 2: intratumoral at day 5) was 80% and the “Number of alive mice” value ([1]; day 31, group 3: intratumoral at day 11) was 40%. For the same compound, the “animals in which growth of melanoma was suppressed by 100%” value ([1]; group No. 2, after a single intratumoral injection at day 5) was 2 out of 5, the “tumor volume as % of the corresponding figure in the control group” value ([1]; intratumoral on the 5th day after inoculation, day of reading not given) was 4% and the “suppression of the metastatic process (tumor size, surviving animals, number of metastases), words” value [2] was “confirmed the efficacy”.
